ChEMBL document CHEMBL1201862, “PubChem BioAssay data set” (2004)
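How tested: cells in 96-well plates exposed to compound for 48 hours at five concentrations. GI50 marks 50% less growth.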 Active and inactive are the calls of the source. Cut-off read from the data, not from the text of the source: active = GI50 up to about 1.1 µM and inactive = higher.

Columns and labels:
Assay in all cases: NCI tumour cell line growth inhibition, 48 h
HOP-62 = tested on: HOP-62
RXF 393 = tested on: RXF 393
MCF7 = tested on: MCF7
UO-31 = tested on: UO-31
OVCAR-5 = tested on: OVCAR-5
UACC-62 = tested on: UACC-62
T47D = tested on: T47D
MOLT-4 = tested on: MOLT-4
SNB-75 = tested on: SNB-75
A549 = tested on: A549
SF-295 = tested on: SF-295
NCI-H460 = tested on: NCI-H460
MDA-MB-435 = tested on: MDA-MB-435
HOP-92 = tested on: HOP-92
MDA-MB-231 = tested on: MDA-MB-231
SF-539 = tested on: SF-539
SN12C = tested on: SN12C
CCRF-CEM = tested on: CCRF-CEM
MDA-N = tested on: MDA-N

| SMILES | GI50 (HOP-62) | GI50 (RXF 393) | GI50 (MCF7) | GI50 (UO-31) | GI50 (OVCAR-5) | GI50 (UACC-62) | GI50 (T47D) | GI50 (MOLT-4) | GI50 (SNB-75) | GI50 (A549) | GI50 (SF-295) | GI50 (NCI-H460) | GI50 (MDA-MB-435) | GI50 (HOP-92) | GI50 (MDA-MB-231) | GI50 (SF-539) | GI50 (SN12C) | GI50 (CCRF-CEM) | GI50 (MDA-N) |
| --- | --- | --- | --- | --- | --- | --- | --- | --- | --- | --- | --- | --- | --- | --- | --- | --- | --- | --- | --- |
| CC(Oc1ccc(Cl)cc1Cl)C(=O)NN1C(=O)CSC1c1ccc(Cl)cc1 (stereo not given) | 33.6 µM (inactive) | 27 µM (inactive) | 36.8 µM (inactive) | > 100 µM (inactive) | > 100 µM (inactive) | 43.5 µM (inactive) | 42.5 µM (inactive) | 21.7 µM (inactive) | 27.9 µM (inactive) | 31 µM (inactive) | 50.6 µM (inactive) | > 100 µM (inactive) | > 100 µM (inactive) | 21 µM (inactive) | 27.4 µM (inactive) | 20.5 µM (inactive) | 20 µM (inactive) |  |  |
| CCC(=O)Nc1ccc(N2C(=O)/C(=C/c3ccc(O)c(OC)c3)N=C2c2ccccc2)cc1 | 46.6 µM (inactive) | 10.9 µM (inactive) | 31.6 µM (inactive) | 25.5 µM (inactive) | 40.8 µM (inactive) | 26.4 µM (inactive) | 24 µM (inactive) | 11.3 µM (inactive) | > 100 µM (inactive) | 21.3 µM (inactive) | 19.9 µM (inactive) | 23.9 µM (inactive) | 29.5 µM (inactive) | 46.5 µM (inactive) |  | 84.1 µM (inactive) | 54.5 µM (inactive) | 22.1 µM (inactive) | 31.3 µM (inactive) |
| O=S(=O)(Nc1nccs1)c1ccc([As](=O)(O)O)cc1 | > 100 µM (inactive) | > 100 µM (inactive) | > 100 µM (inactive) | > 100 µM (inactive) | > 100 µM (inactive) | > 100 µM (inactive) | > 100 µM (inactive) | > 100 µM (inactive) | > 100 µM (inactive) | > 100 µM (inactive) | > 100 µM (inactive) | > 100 µM (inactive) | > 100 µM (inactive) | > 100 µM (inactive) | > 100 µM (inactive) |  | > 100 µM (inactive) | > 100 µM (inactive) |  |
| CCCC(=O)NC(NC1CCCCC1)(C(=O)OCC)C(F)(F)F (stereo not given) | > 100 µM (inactive) | > 100 µM (inactive) | > 100 µM (inactive) | > 100 µM (inactive) | > 100 µM (inactive) |  | > 100 µM (inactive) | > 100 µM (inactive) | 29.7 µM (inactive) | > 100 µM (inactive) | > 100 µM (inactive) | > 100 µM (inactive) | > 100 µM (inactive) | > 100 µM (inactive) |  | > 100 µM (inactive) | > 100 µM (inactive) | > 100 µM (inactive) | > 100 µM (inactive) |
| O=C(NCCC1([N+](=O)[O-])CCN(C(=O)c2ccccc2)CC1)c1ccccc1 |  | 67 µM (inactive) |  | 55.2 µM (inactive) | > 100 µM (inactive) | 57.4 µM (inactive) | > 100 µM (inactive) | > 100 µM (inactive) |  | > 100 µM (inactive) | > 100 µM (inactive) | 35.3 µM (inactive) | 26.7 µM (inactive) | < 0.01 µM (active) | > 100 µM (inactive) | > 100 µM (inactive) | > 100 µM (inactive) | > 100 µM (inactive) | 47.1 µM (inactive) |
| CCCNC(=O)CCC(C)C1CCC2C3C(C[C@H](OC(C)=O)[C@]12C)[C@@]1(C)CCC2(C[C@H]1C[C@H]3OC(C)=O)OOC1(CC[C@]3(C)C4C[C@H](OC(C)=O)[C@]5(C)C(C(C)CCC(=O)NCCC)CCC5C4[C@H](OC(C)=O)C[C@@H]3C1)OO2 (stereo not given in full) | 20.8 µM (inactive) | > 100 µM (inactive) | > 100 µM (inactive) | 0.101 µM (active) | 46.5 µM (inactive) |  |  | > 100 µM (inactive) | 57.5 µM (inactive) | > 100 µM (inactive) | 60.4 µM (inactive) | > 100 µM (inactive) | > 100 µM (inactive) |  | 11.3 µM (inactive) |  | > 100 µM (inactive) | > 100 µM (inactive) | > 100 µM (inactive) |
| NC(=S)N1N=C(c2ccc3c(c2)CCC3)CC1c1ccccc1 (stereo not given) | 24.9 µM (inactive) | 2.88 µM (inactive) | 8.45 µM (inactive) | 29.9 µM (inactive) | 32.2 µM (inactive) | 17.6 µM (inactive) | 1.64 µM (inactive) | 8.15 µM (inactive) | 18.1 µM (inactive) | 23.4 µM (inactive) | 15.7 µM (inactive) | 22.2 µM (inactive) | 20.2 µM (inactive) | 23.4 µM (inactive) |  | 18.3 µM (inactive) | 24.7 µM (inactive) | 23.1 µM (inactive) | 22.9 µM (inactive) |
| CC(=O)NC(C)(C)C1CCC(C)CC1 (stereo not given) | > 100 µM (inactive) | > 100 µM (inactive) | > 100 µM (inactive) | > 100 µM (inactive) | > 100 µM (inactive) | > 100 µM (inactive) |  | > 100 µM (inactive) | > 100 µM (inactive) | > 100 µM (inactive) | > 100 µM (inactive) | > 100 µM (inactive) | > 100 µM (inactive) |  | > 100 µM (inactive) | > 100 µM (inactive) | > 100 µM (inactive) | > 100 µM (inactive) | > 100 µM (inactive) |
